Activity calls are given as the source filed them.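 The calls were made as follows: active = AC50, the dose giving half-maximal effect, exceeds a fixed cutoff for a compound that rescues yeast growth under heat; inactive = the rest, inconclusive results apart.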
tested on: S. cerevisiae Burl-1 ts mutant growth, BacTiter-Glo, 38.5C 24 h; assay: growth induction of Burl-1 ts yeast mutant, dose response, counter-screen for SUMOylation pathway inhibitor project, whole organism, S. cerevisiae, luminescence (AID 463199)

Compound	AC50
O=C(Nc1ccsc1C(=O)O)c1cccc(C(F)(F)F)c1	> 42 µM (inactive)
Cc1cccc(N(C(=O)c2ccc(CN3CCOCC3)o2)C(C(=O)NC2CCCCC2)c2ccc(F)cc2)c1 (stereo unspecified)	> 42 µM (inactive)
COc1ccc(S(=O)(=O)NC(C)C(=O)NCc2ccccn2)cc1Cl (stereo unspecified)	> 42 µM (inactive)
Cc1ccc(C(=O)NCC(=O)Nc2ccc3c(c2)OCCO3)cc1	18.5 µM
Cc1nc(NCCN2CCOCC2)c2nnn(Cc3c(F)cccc3Cl)c2n1	> 42 µM (inactive)
Cc1ccc(C)c(N2CCN(C(c3ccncc3)c3nnnn3Cc3ccccc3)CC2)c1 (stereo unspecified)	32.8 µM
COc1ccc(C(=O)N2CCN(c3ccc(NC(=O)c4cccnc4)cc3)CC2)cc1	> 42 µM (inactive)
COc1ccc(C2=C(N)c3ccccc3C2=O)cc1	> 42 µM (inactive)
N#C/C(=C\c1cc([N+](=O)[O-])c(N2CCOCC2)cc1N1CCOCC1)c1nc2ccccc2[nH]1	> 42 µM (inactive)
Cc1nn(C)c(C)c1-c1c(C#N)c(N)nc2c1CCCCCC2	> 42 µM (inactive)
Cc1ccc(-c2csc3ncn(CC(=O)N4CCOCC4)c(=O)c23)cc1	> 42 µM (inactive)
CC(C)(C)NC(=O)CC1C(=O)NCCN1Cc1c(F)cccc1Cl (stereo unspecified)	37.4 µM
O=C(Nc1nc2ccccc2s1)c1cccc(S(=O)(=O)N2CCc3ccccc32)c1	> 42 µM (inactive)
CCOc1ccc(S(=O)(=O)N2CCN(CC(O)COc3cccc([N+](=O)[O-])c3)CC2)cc1 (stereo unspecified)	> 42 µM (inactive)
COc1ccccc1CNC(=O)C1CCC(=O)N1C(C)C (stereo unspecified)	> 42 µM (inactive)
Cc1cc2c(cc1C)-c1nnc(-c3ccc4ccccc4n3)n1C(C)(C)C2	> 42 µM (inactive)
CCn1cnc2sc(-c3ccccc3)cc2c1=O	> 42 µM (inactive)
NC(=O)C1CCN(C2CC(=O)N(c3ccc(F)c(Cl)c3)C2=O)CC1 (stereo unspecified)	> 42 µM (inactive)
CCCc1ccccc1OCCNC(C)=O	> 42 µM (inactive)
CC1(C)Cc2c(cnn2-c2ccc(F)cc2)C(NC(=O)CCCN2CCCCC2=O)C1 (stereo unspecified)	> 42 µM (inactive)
COc1cccc(-c2ocnc2C(=O)Nc2ccc3c(c2)CCC3)c1	> 42 µM (inactive)
Cc1ccc(/C=N/NC(=O)NC23CC4CC(CC(C4)C2)C3)o1	> 42 µM (inactive)
Cc1ccc(NC(=O)CN2C(=O)COc3ccc(S(=O)(=O)N4CCOCC4)cc32)cc1F	> 42 µM (inactive)
CCCCn1c(SCC(=O)Nc2cc(C)on2)nnc1-c1ccco1	> 42 µM (inactive)

Compound	AC50
COc1cccc(C(=O)N2CCN(S(=O)(=O)Cc3ccccc3)CC2)c1OC	> 42 µM (inactive)
O=S(=O)(c1ccccc1)N1CCN(c2nc3ccccc3s2)CC1	> 42 µM (inactive)
Nc1cc(-c2ccc(Cl)cc2)nn1S(=O)(=O)c1ccc(Cl)cc1	> 42 µM (inactive)
Cc1ccc(NC2CC(=O)N(c3ccc(N4CCCCC4)cc3)C2=O)cc1 (stereo unspecified)	> 21 µM (inactive)
O=C(CSc1nc(-c2ccccc2)cc(=O)[nH]1)Nc1ccc(Br)cc1	> 42 µM (inactive)
C/C(CC1(O)C(=O)Nc2ccccc21)=N\O (stereo unspecified)	> 42 µM (inactive)
O=C(NNC(=O)C12CC3CC(CC(C3)C1)C2)c1ccccn1	> 42 µM (inactive)
Cc1cc(-c2ccccc2)n(-c2ccc(C(=O)NC(C)C)cc2)n1	> 42 µM (inactive)
O=C(c1ccc(CS(=O)(=O)c2ccccc2)o1)N1CCOCC1	> 42 µM (inactive)
COc1ccccc1NC(=O)COC(=O)CC(C)(C)CC1=NS(=O)(=O)c2ccccc2N1	> 42 µM (inactive)
CCOC(=O)Cc1csc(NC(=O)NC2(C(F)(F)F)Oc3ccccc3O2)n1	> 42 µM (inactive)
COc1ccccc1NC(=O)N1CCN(C(=O)Nc2ccccc2OC)CC1	> 42 µM (inactive)
Cc1cc(=O)c(C(=O)O)cn1Nc1ccc(Cl)cc1	> 42 µM (inactive)
Cc1ccc(S(=O)(=O)/N=C(/Nc2ccc([N+](=O)[O-])cc2[N+](=O)[O-])c2ccccc2)cc1	> 42 µM (inactive)
Nc1ccnc(=O)[nH]1	> 42 µM (inactive)
CCCCn1c2c(c(=O)n(C)c1=O)C(c1ccc(OC)cc1)N1CCCCCC1=N2 (stereo unspecified)	> 42 µM (inactive)
CCOC(=O)c1oc2cc(OC(C)=O)ccc2c(=O)c1-c1ccc(OC)c(OC)c1	> 42 µM (inactive)
COc1ccc(N(C(=O)c2ccco2)C(C(=O)NC2CCCCC2)c2ccccc2)cc1 (stereo unspecified)	> 42 µM (inactive)
Nc1nnnn1CC(=O)N/N=C/c1cccs1	> 42 µM (inactive)
N#Cc1c(Cn2cncn2)nc(=O)n(-c2ccc(Cl)cc2)c1N	> 42 µM (inactive)
Cc1ccc2c(c1)C(O)(CC(=O)c1cccnc1)C(=O)N2 (stereo unspecified)	> 42 µM (inactive)
CCOC(=O)c1c(C)[nH]c(C(=O)COC(=O)c2ccncc2)c1C	> 42 µM (inactive)
CCn1c(N2CCN(C(=O)C34CC5CC(CC(C5)C3)C4)CC2)nc2ccccc21	> 42 µM (inactive)
O=C(CCNC(=O)c1ccc(Br)cc1)NCc1ccccc1F	> 42 µM (inactive)

Compound	AC50
Cn1c(=O)c2c(nc(N/N=C/c3ccc(OC(=O)c4ccco4)cc3)n2Cc2ccccc2Cl)n(C)c1=O	> 42 µM (inactive)
CCOC(=O)c1c(C)[nH]c(O)c1C=Nc1ccccc1	> 42 µM (inactive)
COc1ccc(N2CCN(CCCNC(=O)C(=O)c3c(C)[nH]c4ccccc34)CC2)cc1	> 21 µM (inactive)
O=C(OCc1ccccc1)c1cccc(-c2nnn(Cc3ccccc3)n2)c1	> 42 µM (inactive)
Cc1ccccc1C(=O)/C=C1\NC(=O)CS1	> 21 µM (inactive)
Cc1cccc(C)c1NC(=O)C(Cl)C(=O)c1ccccc1 (stereo unspecified)	> 42 µM (inactive)
O=Cc1cn(Cc2ccccc2F)c2ccccc12	> 42 µM (inactive)
CCOC(=O)c1sc(NC(=O)C(CC)OC(=O)c2ccco2)nc1C (stereo unspecified)	> 42 µM (inactive)
Cc1cc(C)c2cc(C)c3nnc(SCC(=O)NCc4ccc5c(c4)OCO5)n3c2c1	> 42 µM (inactive)
CCOC(=O)c1sc(N/N=C/c2ccc(N(C)C)cc2)nc1C	> 42 µM (inactive)
O=C(Nc1ccc([N+](=O)[O-])cn1)C1CC1	> 42 µM (inactive)
O=C(Cn1sc2ccccc2c1=O)NC12CC3CC(CC(C3)C1)C2	> 42 µM (inactive)
COc1cccc(N=Nc2c(=O)[nH]n3c(=O)cc(C)[nH]c23)c1	> 42 µM (inactive)
CCCc1cc(=S)n2c([nH]c3ccccc32)c1C#N	> 42 µM (inactive)
O=c1c2ccccc2ncn1-c1ccc(Cl)cc1Cl	> 42 µM (inactive)
CCN(CC)S(=O)(=O)c1ccc(S(=O)(=O)N2CCC(C(=O)NC3CCN(Cc4ccccc4)CC3)CC2)cc1	> 42 µM (inactive)
COc1ccccc1OCCCn1cc(C#N)c2ccccc21	> 42 µM (inactive)
COc1ccc2c(CC(=O)Nc3ccc(OC)c(NS(=O)(=O)c4ccc(F)cc4)c3)coc2c1	> 42 µM (inactive)
Cc1noc(C)c1Cc1ccc(O)cc1	> 42 µM (inactive)
CNC(=O)c1ccccc1S(=O)c1ccccc1COC(C)=O (stereo unspecified)	> 42 µM (inactive)
Cc1nc(-c2ccncc2)sc1C(=O)Nc1ccc(Br)cc1	> 42 µM (inactive)
COc1ccc(C2=NN(C(=S)Nc3ccccc3)C(c3ccccc3)C2)cc1 (stereo unspecified)	> 42 µM (inactive)
COc1ccc(C2CC3(CC(C)(C)NC(=S)N3)Oc3cc(O)cc(C)c32)cc1 (stereo unspecified)	> 42 µM (inactive)
